{"source": "patent US8409560B2", "about": "“Solid dispersion formulations and methods of use thereof” (Zalicus Pharmaceuticals Ltd., priority 2011, dated 2013)", "key": {"[1]": {"assay": "Solubility of compound 1 (previously determined)", "format": "physicochemical", "text": "(§1) Compound 1 has the following previously determined characteristics: […]"}, "[2]": {"assay": "log P of compound 1 (previously determined)", "format": "physicochemical", "text": "as §1"}, "[3]": {"assay": "Adverse effects at doses of up to 1,600 mg", "format": "in vivo", "text": "Yet, compound 1 is also known to have decreased oral bioavailability in the fasted state, as compared to the fed state. Accordingly, the invention provides formulations to increase the oral bioavailability or to reduce patient-to-patient variability in pharmacokinetic behavior of compound 1, compound 2, or a salt thereof. Generally, amorphous forms of a drug are more readily absorbed within the gastric and intestinal system and, thus, have increased bioavailability, as compared to crystalline forms of the drug. These formulations include use of a solid dispersion system to provide a matrix polymer capable of maintaining therapeutically effective amounts of compound 1, compound 2, or a salt thereof, in an amorphous form."}, "[4]": {"assay": "Supersaturation dissolution kinetics of hot melt extrusion formulations", "format": "physicochemical", "conditions": "processing conditions na", "protocol": "Supersaturation dissolution kinetics provides valuable information regarding the performance of different matrix polymers in combination with an active agent. In particular, such studies could provide insight on which formulations could provide enhanced bioavailability. Accordingly, dissolution studies were conducted on the following three HME formulations: Kollidon® VA 64 (Copovidone), HPMCAS-MF (Hypromellose Acetate Succinate), and Kollidon® K30 (Povidone, PVP).\nBriefly, the target concentration of the dissolution sample solution was 1.1 mg/mL, or ten times the estimated sink dissolution sample solution concentration produced by a 100 mg dose when dissolved in 900 mL of dissolution media. Triplicate preparations of about 10 mg of extrudate (2 mg of compound 1 in the three HME formulations) were transferred into separate micro-centrifuge tubes. About 1.8 mL of dissolution media was preheated to 37° C. and added to each tube, where the tube was then placed into an incubator shaker at 37° C. and 250 rpm. Samples were centrifuged at 13,000 rpm for one minute, and 25 μL aliquots of the clear supernatant were transferred into HPLC vials and diluted with 1.0 mL of HPLC mobile phase (30%/70% of pH 6.6 buffer/acetonitrile) at 10′ (minutes), 20′, 40′, 1 hr (hour), 1.5 hrs, 2 hrs, 4 hrs, and 24 hrs. An isocratic HPLC method was applied for quantitation against a five point calibration curve in the range of 5.5-220 μg/mL (C18, 5 μm, 4.6×150 mm column, and UV 216 nm detection). The HPLC sample solution target concentration was 27.1 μg/mL."}, "[5]": {"assay": "Phase I (Group 2) study of HME or SDD formulations in healthy human subjects, fed (standard meal)", "format": "in vivo", "conditions": "225 mg HME or SDD oral; for half-life: human, plasma, po, 225 mg", "protocol": "Bioavailability of the ion channel modulator compound 1 was studied in healthy human subjects using SDD and HME formulations, with subjects in a fed state. The effect the SDD or HME formulation on bioavailability following a single oral dose under fed conditions was thereby evaluated and compared. Safety and tolerability of compound 1 was also evaluated.\nThis study utilized a single-center, single-dose open-label, 2-group, 2-period randomized crossover design to determine bioavailability following treatment with the SDD or HME formulation under fed conditions. A total of 16 subjects were selected by the criteria described in Example 10.\nSubjects were treated with an oral dose of 225 mg HME (as described in Example 8, Table 14) or 225 mg SDD (as described in Example 7) with approximately 8 fluid ounces of water in the fed (standard meal) state. Subjects were randomized between HME and SDD formulations in equal numbers during period 1 of the trial, and, following a washout period, assigned to the opposite formulation during period 2. The fed condition is defined as the state of a subject following an overnight fast of at least 10 hours with a test meal provided 30 minutes prior to administration of the study drug. The subject must completely consume their respective meal before being dosed. Meals were standardized and standard meals were served according to a pre-determined schedule throughout the inpatient portion of the study. A standardized meal derived approximately 35% of total caloric content of the meal from fat, approximately 15-20% from protein, and approximately 45-50% from carbohydrates, with a total caloric content of approximately 400-450 calories. An example test meal would have included ⅝ ounces Cheerios®, 1 egg, 1 strip of bacon, 1 slice of toast with margarine, 6 ounces of low fat milk, and 4 ounces of orange juice. The time of food intake before and after study drug administration was documented. Water was allowed as desired except for one hour before and after drug administration. Outside of these restrictions, subjects in both fed and fasted conditions were provided fluid intake according to the subject's individual needs, with documentation. HME and SDD groups were dosed and evaluated simultaneously.\nTreatments of 225 mg HME or SDD were administered on day 1 of period 1 of the trial and subjects were admitted to the clinical research unit (CRU) for four days of inpatient evaluation. Subjects were discharged from the CRU upon completion of assessments on day 4, and reported to the CRU for additional pharmacokinetic blood sampling and safety assessment on days 5 and 6, completing period 1. There was a 7-day washout between the first and second period drug administrations. In the second period, subjects were treated with an oral dose of 225 mg HME or 225 mg SDD in the fed (standard meal) state. The treatment was administered on day 1 of period 2 of the trial and subjects were admitted to the clinical research unit (CRU). Subjects were discharged from the CRU upon completion of assessments on day 4, and reported to the CRU for additional and followup pharmacokinetic blood sampling and safety assessment on days 5, 6, 8, 15, 22, 29, and 36 of period 2.\nPharmacokinetic assessments conducted during each treatment period were performed by the collection of venous blood samples via indwelling catheter or direct venipuncture. The plasma concentrations of the drug was determined for each sample. Concentration of the drug was determined using a validated liquid chromatography coupled with tandem mass (LC/MS/MS) assay, with a lower limit of quantitation (LLOQ) of 0.1 ng/mL. Descriptive statistics were calculated for these parameters and tabulated by formulation and period. Safety of the trial subjects was assessed by the following endpoints: adverse events, vital signs, ECG parameters, laboratory parameters, medical history, and physical examination. […]"}}, "note": "Values joined by “and” are separate entries in the source; they are usually repeats but may differ in a detail not shown here. Equal entries are not always repeated. Where two headings read alike, the source gives them in different places.", "data": [{"smiles": "O=C(CC(c1ccccc1)c1ccccc1)N1CCN(C(c2ccccc2)c2ccccc2)CC1", "note": "[Compound 1, 1-(4-benzhydrylpiperazin-1-yl)-3,3-diphenylpropan-1-one]", "values": [{"measurement": "solubility in propylene glycol, ethanol, and tetrahydrofuran (in words)", "setting": "[1]", "value": "soluble"}, {"measurement": "solubility", "setting": "[1]; acetone, organic solvent or mixture, read-out: solubility in acetone", "value": "≤ 50000", "unit": "µg/mL"}, {"measurement": "solubility", "setting": "[1]; pH 6.5, pH of 6.5 in FaSSIF, read-out: solubility", "value": 1.5, "unit": "µg/mL"}, {"measurement": "solubility in water (in words)", "setting": "[1]; water", "value": "slightly soluble"}, {"measurement": "solubility", "setting": "[1]; water, pH 1, simulated gastric fluid, pH of 1.0, read-out: solubility in water", "value": 55, "unit": "µg/mL"}, {"measurement": "solubility", "setting": "[1]; water, pH 6.5, aqueous buffer, pH of 6.5, read-out: solubility in water", "value": 0.03, "unit": "µg/mL"}, {"measurement": "solubility", "setting": "[1]; water, pH 6.8, aqueous buffer, pH of 6.8, read-out: solubility in water", "value": "0.2 to 2", "unit": "µg/mL"}, {"measurement": "logP", "setting": "[2]", "value": 2.6}, {"measurement": "adverse effects", "setting": "[3]", "value": "no adverse effects"}, {"measurement": "AUC0-4 hr (dissolution)", "setting": "[4]", "value": 8000, "unit": "ng·h/mL"}, {"measurement": "Tmax (dissolution)", "setting": "[4]", "value": 2, "unit": "h"}, {"measurement": "Cmax (dissolution)", "setting": "[4]; 37° C.", "value": 2645, "unit": "ng/mL"}, {"measurement": "Half-Life Period 1", "setting": "[5]; period 1, individual subjects", "value": "617 h and 79 h and 75 h and 270 h and 73 h and 115 h and 112 h and 92 h and 94 h and 163 h and 96 h and 114 h and 72 h and 105 h and 77 h"}, {"measurement": "Half-Life Period 2", "setting": "[5]; period 2, individual subjects", "value": "104 h and 171 h and 176 h and 417 h and 82 h and 106 h and 149 h and 155 h and 137 h and 400 h and 193 h and 98 h and 71 h and 116 h and 114 h"}, {"measurement": "Half-Life Ratio", "setting": "[5]; ratio period 1 to period 2, Mean", "value": 73, "unit": "%"}, {"measurement": "Half-Life Ratio", "setting": "[5]; ratio period 1 to period 2, individual subjects", "value": "76% and 44% and 43% and 65% and 89% and 108% and 75% and 59% and 69% and 41% and 50% and 116% and 101% and 91% and 68%"}, {"measurement": "half-life", "setting": "[5]; period 1, Mean, read-out: Half-Life Period 1 (converted)", "value": 139, "unit": "h"}, {"measurement": "half-life", "setting": "[5]; period 2, Mean, read-out: Half-Life Period 2 (converted)", "value": 166, "unit": "h"}]}]}
